US6875847B1, “Linoleate and linolenate-lipoxygenase mutants” (Institut fur Pflanzenbiochemie IPE, priority 1999, dated 2005)

Target: T1, Cucumis sativus (cucumber) lipid body lipoxygenase (cslbLOX, 13-LOX), wild type, X92890, FIG. 5 (Cucumis sativus, UniProt Q42710)
T1 sequence (Q42710 1-878): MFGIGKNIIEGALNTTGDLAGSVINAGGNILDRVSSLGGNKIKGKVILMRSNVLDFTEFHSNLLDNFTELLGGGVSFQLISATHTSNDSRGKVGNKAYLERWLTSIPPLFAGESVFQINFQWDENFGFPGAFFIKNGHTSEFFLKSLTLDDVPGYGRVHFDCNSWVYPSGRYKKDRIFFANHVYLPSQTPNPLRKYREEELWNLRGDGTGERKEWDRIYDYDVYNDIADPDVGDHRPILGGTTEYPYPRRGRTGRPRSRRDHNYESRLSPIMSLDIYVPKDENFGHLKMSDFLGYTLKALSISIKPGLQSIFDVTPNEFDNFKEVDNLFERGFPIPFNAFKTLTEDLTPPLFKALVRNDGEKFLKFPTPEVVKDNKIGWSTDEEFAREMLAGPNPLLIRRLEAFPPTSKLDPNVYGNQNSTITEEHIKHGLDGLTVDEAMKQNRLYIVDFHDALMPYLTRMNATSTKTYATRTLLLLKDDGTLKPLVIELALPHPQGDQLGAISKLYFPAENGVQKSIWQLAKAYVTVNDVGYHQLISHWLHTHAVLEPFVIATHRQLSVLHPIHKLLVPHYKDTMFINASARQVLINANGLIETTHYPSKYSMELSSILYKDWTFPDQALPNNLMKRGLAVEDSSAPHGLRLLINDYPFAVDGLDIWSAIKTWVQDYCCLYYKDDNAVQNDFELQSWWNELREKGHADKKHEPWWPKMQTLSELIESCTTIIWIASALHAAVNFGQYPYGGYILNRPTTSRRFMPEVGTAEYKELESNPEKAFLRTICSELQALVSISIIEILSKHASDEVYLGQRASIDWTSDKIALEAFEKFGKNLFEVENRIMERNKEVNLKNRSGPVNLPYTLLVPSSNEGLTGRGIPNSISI
Experiment: Kinetic characterization of wild-type LOX (13-LOX) with LA
Format: biochemical
Conditions: 23 points measured between 100 μM and 250 μM LA
Method: For the bacterial expression of wild-type LOX and for directed mutagenesis the plasmid pQE-30 (Qiagen, Hilden, Germany), which contained the cDNA of the LOX from lipid bodies of cucumber cotyledons as an insert (LOXpQE 30: cf. Feussner, I., Bachmann, A., Höhne, M. & Kindl, H. (1998) FEBS Lett. 431, 433-436) was used. The mutagenesis was carried out with the aid of the QuikChange Mutagenesis Kit from Stratagene (Heidelberg, Germany). Oligonucleotides with the appropriate base exchanges were obtained from MWG-Biotech (Ebersberg, Germany). For the analysis of the mutations further conservative base exchange was initiated in order to create new restriction division sites or to delete existing ones. In addition all the mutations were sequenced and at least three different bacterial clones expressed and used for the investigation of enzymatic properties. The expression of LOXpQE-30 and all the mutations was carried out according to Feussner, I., Bachmann, A., Höhne, M. & Kindl, H. (1998) FEBS Left. 431, 433-436. Cells from 1-liter cultures were resuspended in 5 to 7 ml lysis buffer and with the aid of an ultrasound needle broken up with pulses each of 30 seconds, and the cell debris made into pellets. The affinity purification of the polyHis-extended LOX was carried out as previously described (cf. Feussner, I., Bachmann, A., Höhne, M. & Kindl, H. (1998) FEBS Lett. 431, 433436).

Km: 115 µM | LA turnover at Vmax condition (substrate saturation): 12 s⁻¹
Structure (SMILES): CCCCC/C=C\C/C=C\CCCCCCCC(=O)O [LA, linoleic acid]
